Measurements reported in patent publication US8715684B2, “Peptides inducing a CD4i conformation in HIV gp120 while retaining vacant CD4 binding site” (priority 2007, dated 2014).
“Also recorded” adds a separate entry of the source. Read-outs that look alike come from different tables or passages of the source.

Legend:
[1] = test system: gp120451; assay: Dot blot of phage-displayed peptides incubated with gp120451, probed with defining mAbs or CD4 (FIG. 1, 4); assay type: binding, HIV-1
Description: Phages expressing the m1 peptide as protein fusions (m1) or not (fth1, as a negative control) were applied to nitrocellulose membranes as dots and incubated with or without gp120451. After washing, the filters were probed with either anti-gp120 mAb or the CG10 mAb as indicated and signals were developed by enhanced chemiluminescence (ECL)
Of the gp120-binding peptides isolated, one was particularly unique. […] As noted above, binding of CG10 to its epitope is absolutely dependent on the CD4i conformation of gp120. It was concluded that m1 binds to the CD4 binding site and acts as a CD4 mimetic, triggering a structural rearrangement locking gp120 into the CD4i conformation.
Because the CD4i conformation of gp120 can disrupt the integrity/accessibility of important neutralizing epitopes of gp120 [e.g. b12 (Xiang et al., 2002, supra)] the binding of a panel of neutralizing antibodies was tested.

[2] = molecular target: CD4 (Homo sapiens, UniProt P01730); assay: Capture ELISA of m1 phages with CD4 alone (FIG. 2E); assay type: binding; settings: CD4 without gp120
Description: Anti-M13 (phage) antibody was adsorbed to microplate wells to capture either m1 peptide-expressing phages (A, B, D, E) or fth1-negative control phage (C).

[3] = test system: gp120JR-FL; assay: Binding of peptides to gp120 of the JR-FL isolate; parameters: species or system HIV-1
[4] = test system: gp120BaL; assay: Dot blot of m2 phages with gp120BaL, probed with panel of defining mAbs (FIG. 8); assay type: binding, HIV-1
Excerpt: Each dot was applied in duplicate.
A second measure of “improved peptide” characteristics is the ability to bind gp120s derived from other HIV-1 isolates. (m1 was developed using gp120451.) The preference was to identify a peptide that has the same type of effect on the BaL isolate of HIV-1 as does the m1-peptide for the 451 isolate.

[5] = test system: gp120; settings: for Kd: quantitative ELISA, FIG. 7

Sequence	binding of CD4BS mAbs b12, b6 and m14 to peptide/gp120 complex [1]	binding of CD4 to peptide/gp120 complex [1]	binding to gp120451 ([1]; phage-displayed peptide)	induction of the CG10 epitope (CG10 mAb binding to peptide/gp120451 complex) ([1]; phage-displayed peptide)	binding of peptide to CD4 alone [2]	binding to gp120JR-FL [3]	CD4 binding by peptide-captured gp120BaL [4]	induction of CD4i epitopes (CG10, 17b) in gp120BaL [4]	integrity of neutralizing / CD4BS epitopes (2G12, b12, b6, m14) in peptide-captured gp120BaL [4]	binding to gp120BaL ([4]; phage-displayed peptide)	fold increase in binding / affinity for gp120 versus m1 ([5]; compared with m1)	Kd ([5]; read-out: KD for gp120 binding)	Kd ([5]; read-out: apparent affinity constant for gp120 binding)
CDRRDLPQWAKREC [m1]	bind the m1/gp120 complex very well; also recorded: without interfering with b12, b6 or m14 binding	CD4 itself bound the m1/gp120 complex	specifically bind gp120; also recorded: binds gp120; also recorded: binds to gp120451	elicit the CG10 epitope; also recorded: CG10 bound the complex; also recorded: induces the CG10 epitope; also recorded: induced CG10 binding	no affinity for CD4 alone; also recorded: CD4 does not bind m1	not to gp120JR-FL							
CDRRDLPDWAIRAC [m2]	without interfering with b12, b6 or m14 binding			induced CG10 binding			is able to bind CD4 itself	induces CD4i epitopes; also recorded: induces both the CG10 and 17b epitopes	maintains the integrity of the CD4BS epitopes; also recorded: intact and available	binds m2 peptide; also recorded: binds also to gp120BaL	10 fold	6.5 nM	6.5 nM
